Measured values taken from paper PMC3430621, “HPLC–MS/MS Analysis of a Traditional Chinese Medical Formulation of Bu-Yang-Huan-Wu-Tang and Its Pharmacokinetics after Oral Administration to Rats” (PLoS ONE, 2012).
Like-named read-outs stand apart in the source and are kept apart here.

Key:
[1] = Stability of the analytes in rat plasma samples (freeze-thaw, short-term, long-term, autosampler); assay type: in vitro ADME; conditions: n = 3; for Stability (%) Autosampler stability: autosampler 8°C 12 h; for Stability (%) Short-term stability: room temperature 6 h; for Stability (%) Freeze-thaw stability: three freeze-thaw cycles; for Stability (%) Long-term stability: −20°C 14 days
Method: Stability was also assessed using the low, medium and high concentrations of analytes. Freeze-thaw stability was assessed over three freeze-thaw cycles. Short-term stability was determined by placing the samples at room temperature for 6 h. Long-term stability was evaluated by analyzing samples kept at −20°C for 14 days. Autosampler stability was determined by maintaining the samples at the autosampler temperature (8°C) for 12 h. All stabilities were calculating as the ratio of average concentration and freshly prepared samples.

[2] = Pharmacokinetics in conscious freely moving rats after oral administration of BYHWT extract (HPLC-MS/MS of plasma); assay type: in vivo, Sprague-Dawley rats; conditions: rat plasma, BYHWT extract 10 g/kg p.o.; for Cmax / Tmax / half-life: male, Sprague-Dawley, po, n = 6; for Cmax: read-out: Cmax; for Tmax: read-out: Tmax (converted); for half-life: read-out: t1/2
Excerpt: The protocol listed below has been reviewed and approved by the Institutional Animal Care and Use Committee (IACUC; approval number 1010409) by the Institutional Animal Experimentation Committee of the National Yang-Ming University. Male pathogen-free Sprague-Dawley rats (250±50 g body weight) were obtained from the Laboratory Animal Center of National Yang Ming University. The animals had free access to food (Laboratory rodent diet 5P14, PMI Feeds, Richmond, IN, USA) and water was allowed at all times. All animal experiments followed the National Yang-Ming University guidelines and procedures for the care of laboratory animals. […] Experimental rats were initially anesthetized with pentobarbital (50 mg/kg, i.p.), and polyethylene tubing was implanted in the right jugular vein for blood sampling. The tube crossed the subcutaneous tissue and was fixed at its exit from the dorsal neck region. The patency tubing was maintained by filling with heparinized saline (20 units/mL). After surgery, the rats were placed in experimental cages and allowed to recuperate for one day. The rats were kept fasted for 12 h and water were available ad libitum before the BYHWT administration. […] In our study, the dose of BYHWT (10 g/kg) was appropriate for oral administration in rats. […] The condensed blood collection in the absorption phase is to figure out the maximum concentration and the time when it reaches the maximum concentration. The time points in the elimination phase are not close. This strategy is commonly used in the pharmacokinetic studies but the total blood consumption should not be over 20% of body blood. In these experimental rats, the total blood sampling volume is within 20% during 12 h. Plasma was separated by centrifuging the blood sample at 6000 rpm for 10 min at 4°C. […] The samples were vortexed and centrifuged at 16,100×g for 10 min. In our micro-analysis, less than 200 μL is needed. Actually, the collected blood volume is around 120-150 μL for each time point. After centrifugation, the plasma samples (50 μL) were vortex-mixed with 100 μL of acetonitrile. The supernatants were collected and filtered. Around 20 μL aliquot of the supernatants was transferred into the vial for analysis by HPLC-MS/MS system. The acetonitrile but not the real sample was used in the needle pre-wash standard procedure [19]. The LC-MS/MS system consisted of an Agilent 1100 series LC with automatic liquid chromatographic sampler, injector, bi-pump and degasser; and Applied Biosystems/MDS Sciex API 3000 tandem quadrupole mass spectrometry equipped with electrospray ionization (ESI) interface using the following parameters: nebulizer gas (NEB):10, curtain gas (CUR): 7, collisionally activated dissociation gas (CAD): 12, ionspray voltage (IS): 5000 V, turbo ionspray temperature (TEM): 450°C. Nitrogen was used in all cases. The mass spectrometer was operated in the positive ion detection mode. […] The following linear gradient program was applied to the analyte with the mobile phase consisting of methanol (0.1% formic acid, solvent A) and NH4OAc (0.1% formic acid, solvent B): 0-1 min: 30-70% A; 1-2 min 70-90%; 2-8 min: 90-90%; 8-9 min: 90-30%, 9-18 min: 30-30%, v/v. […] The flow rate was maintained at […]. Pharmacokinetic parameters including maximum plasma concentration (Cmax), time to reach the maximum concentrations (Tmax), half-life (t1/2), area under concentration-time curve (AUC) and oral clearance (CL) were estimated by a non-compartmental analysis using the pharmacokinetic program, WinNonlin Standard Edition Version 1.1 (Scientific Consulting, Apex, NC, USA). All results were expressed as average mean ± standard deviation (S.D.). ANOVA was used to evaluate differences, and a value of P<0.05 was taken as statistically significant.

[3] = parameters: method as in PMID 17931809; conditions: cited from earlier work

Compound | Stability (%) Autosampler stability ([1]; concentration 10 (µg/mL)) [%] | Stability (%) Short-term stability ([1]; concentration 10 (µg/mL)) [%] | Stability (%) Freeze-thaw stability ([1]; concentration 10 (µg/mL)) [%] | Stability (%) Long-term stability ([1]; concentration 10 (µg/mL)) [%] | Stability (%) Autosampler stability ([1]; concentration 100 (µg/mL)) [%] | Stability (%) Short-term stability ([1]; concentration 100 (µg/mL)) [%] | Stability (%) Freeze-thaw stability ([1]; concentration 100 (µg/mL)) [%] | Stability (%) Long-term stability ([1]; concentration 100 (µg/mL)) [%] | Stability (%) Autosampler stability ([1]; concentration 1000 (µg/mL)) [%] | Stability (%) Short-term stability ([1]; concentration 1000 (µg/mL)) [%] | Stability (%) Freeze-thaw stability ([1]; concentration 1000 (µg/mL)) [%] | Stability (%) Long-term stability ([1]; concentration 1000 (µg/mL)) [%] | Cmax [2] [ng/mL] | Tmax [2] [h] | half-life [2] [h] | absorption phase in the plasma concentration-time curve [2] | Stability (%) Autosampler stability ([1]; concentration 1 (µg/mL)) [%] | Stability (%) Short-term stability ([1]; concentration 1 (µg/mL)) [%] | Stability (%) Freeze-thaw stability ([1]; concentration 1 (µg/mL)) [%] | Stability (%) Long-term stability ([1]; concentration 1 (µg/mL)) [%] | other results
COc1ccc(-c2coc3cc(O)ccc3c2=O)cc1 [Formononetin, formononetin] | −13±4.1 | −3.4±12 | −4.9±3.8 | −13±5.5 | −4.6±11 | 1.1±10 | 5.8±10 | −12±7.5 | 0.8±12 | 1.5±10.4 | −3.5±6.0 | 1.0±6.4 | 98 ± 17 | 0.633 | 2.92 ± 0.217 | single and plateau absorption phase |  |  |  |  | 
CCC/C=C1\OC(=O)C2=C1CCC=C2 [Ligustilide, ligustilide] | 13±7.2 | 11±10 | 2.7±2.2 | 5.0±14 | −1.6±10 | 12±7.5 | 6.5±1.4 | 23±12 |  |  |  |  | 7.8 ± 0.2 | 0.75 | 4.45 ± 0.02 | double-peak absorption phase | 2.0±10 | 14±11 | 8.7±5.9 | 6.7±10 | 
COc1ccc(-c2coc3cc(O[C@@H]4O[C@H](CO)[C@@H](O)[C@H](O)[C@H]4O)ccc3c2=O)cc1 [Ononin, ononin] | −7.0±1.4 | −12±4.6 | −2.5±7.3 | −6.2±2.9 | 8.1±3.8 | 6.7±2.1 | 4.2±1.3 | 3.2±3.9 |  |  |  |  | 19 ± 4.5 | 0.583 | 2.23 ± 0.16 | single and plateau absorption phase | 4.7±7.7 | 12±6.3 | 3.9±6.4 | −7.2±10 | 
C[C@@]12C[C@@]3(O)O[C@@H](O1)[C@]1(COC(=O)c4ccccc4)[C@H]3C[C@@]12O[C@@H]1O[C@H](CO)[C@@H](O)[C@H](O)[C@H]1O [Paeoniflorin, paeoniflorin] | −3.3±7.3 | 7.7±10 | 7.3±4.6 | 21±15 | −1.6±8.2 | −1.8±9.4 | 2.1±1.8 | 10±7.3 | 8.5±5.1 | 11±8.4 | 9.5±0.2 | 27±9.9 | 97 ± 33 | 0.583 | 1.55 ± 0.533 | single and plateau absorption phase |  |  |  |  | 
COc1cc2c(c(OC)c1OC)-c1ccc(OC)c(=O)cc1[C@@H](NC(C)=O)CC2 [colchicine] |  |  |  |  |  |  |  |  |  |  |  |  |  |  |  |  |  |  |  |  | AUC ([3]; donor rats): 847.7 ± 141.0 µg·min/mL; AUC ([3]; recipient rats): 55.5 ± 29.2 µg·min/mL
